Experimental data reported in patent US20250164502A1, “Mutant Human Nax Proteins and Screening Methods” (Genentech, Inc., priority 2021, published 2025).
Like-named read-outs stand apart in the source and are kept apart here.

Experiments:
Format in all cases: cell-based
human NaX-QTT [1] = molecular target: T1, human NaX-QTT (Homo sapiens, UniProt Q01118, F724Q/I1189T/I1492T); test: Whole-cell patch clamp of HEK293T cells expressing NaX-QTT, effect of extracellular Ca^2+
T1 construct: expressed in transfected cells; host or cells: Xenopus laevis oocytes injected with in vitro transcribed capped RNA
T1 sequence (Q01118 whole entry F724Q/I1189T/I1492T): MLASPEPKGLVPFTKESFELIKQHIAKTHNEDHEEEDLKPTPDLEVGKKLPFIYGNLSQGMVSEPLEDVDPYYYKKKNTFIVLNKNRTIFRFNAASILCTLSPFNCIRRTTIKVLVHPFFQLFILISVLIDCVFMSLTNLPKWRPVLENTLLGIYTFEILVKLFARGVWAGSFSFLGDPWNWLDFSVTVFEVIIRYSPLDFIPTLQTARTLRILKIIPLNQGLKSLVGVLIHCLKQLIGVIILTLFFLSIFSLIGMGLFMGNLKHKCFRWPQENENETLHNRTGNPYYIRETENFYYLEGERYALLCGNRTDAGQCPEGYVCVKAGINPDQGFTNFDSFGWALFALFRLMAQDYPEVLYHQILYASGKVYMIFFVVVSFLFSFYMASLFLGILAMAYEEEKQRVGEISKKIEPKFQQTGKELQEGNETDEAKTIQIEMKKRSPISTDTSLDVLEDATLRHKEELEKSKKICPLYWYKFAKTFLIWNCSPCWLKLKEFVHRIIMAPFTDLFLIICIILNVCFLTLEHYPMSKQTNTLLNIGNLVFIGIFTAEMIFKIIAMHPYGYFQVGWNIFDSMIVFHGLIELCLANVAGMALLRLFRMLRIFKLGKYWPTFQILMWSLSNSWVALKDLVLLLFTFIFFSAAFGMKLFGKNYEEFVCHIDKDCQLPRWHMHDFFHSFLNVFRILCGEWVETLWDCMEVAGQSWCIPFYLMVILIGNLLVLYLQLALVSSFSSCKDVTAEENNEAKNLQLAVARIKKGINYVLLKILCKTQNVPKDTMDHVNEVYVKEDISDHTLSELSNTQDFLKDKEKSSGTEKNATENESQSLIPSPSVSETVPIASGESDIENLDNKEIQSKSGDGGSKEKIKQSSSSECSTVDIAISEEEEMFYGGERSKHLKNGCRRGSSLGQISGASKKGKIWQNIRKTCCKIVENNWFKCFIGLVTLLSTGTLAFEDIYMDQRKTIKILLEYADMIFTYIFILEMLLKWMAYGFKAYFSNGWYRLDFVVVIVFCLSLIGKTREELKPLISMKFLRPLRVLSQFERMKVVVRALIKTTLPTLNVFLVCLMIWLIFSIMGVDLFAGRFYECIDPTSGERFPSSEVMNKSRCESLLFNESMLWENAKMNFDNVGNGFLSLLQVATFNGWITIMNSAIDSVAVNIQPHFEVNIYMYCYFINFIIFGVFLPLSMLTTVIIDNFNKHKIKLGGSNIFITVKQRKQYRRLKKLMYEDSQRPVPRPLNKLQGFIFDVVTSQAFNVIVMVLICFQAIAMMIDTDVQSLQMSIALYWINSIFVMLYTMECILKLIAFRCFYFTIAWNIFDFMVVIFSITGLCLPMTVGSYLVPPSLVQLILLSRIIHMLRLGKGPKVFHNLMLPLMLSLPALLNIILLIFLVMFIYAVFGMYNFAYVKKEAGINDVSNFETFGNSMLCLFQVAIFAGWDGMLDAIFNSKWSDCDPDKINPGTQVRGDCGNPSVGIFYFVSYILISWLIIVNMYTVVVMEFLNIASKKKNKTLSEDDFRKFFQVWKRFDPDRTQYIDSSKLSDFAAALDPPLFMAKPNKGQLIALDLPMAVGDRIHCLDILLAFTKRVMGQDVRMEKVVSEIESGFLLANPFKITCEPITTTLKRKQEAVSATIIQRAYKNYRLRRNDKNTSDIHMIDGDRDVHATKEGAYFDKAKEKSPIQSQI
Procedure: (§1) FIGS. 5A-C show pharmacology of the human NaX-QTT channel. FIG. 5A, left and middle panels, show representative I-V currents from HEK293 cells expressing human NaX-QTT with indicated extracellular monovalent cations with or without indicated amounts of CaCl2 in the extracellular solution. Voltage ramp from −80 to +80 mV was applied.
HEK293T cells expressing NaX- or NaX-QTT-eGFP-2×FLAG were seeded on glass cover slips an hour before whole-cell patch-clamping experiments. For a more physiological condition (FIGS. 4D and 7B), the extracellular solution contained 150 mM NaCl, 5 mM KCl, 0.5 mM CaCl2, 1.2 mM MgCl2, 10 mM HEPES, and 13 mM D-(+)-glucose (pH 7.4) with NaOH, ˜320 mOsm/L, and the intracellular solution contained 140 mM CsCl, 10 mM CsF, 5 mM EGTA, 10 mM HEPES, and 2 mM Na2ATP (pH 7.2) with CsOH, ˜304 mOsm/L. To determine if NaX-QTT was cation-permeable, we first substituted all extracellular cations with NMDG^+ (FIG. 4E). Extracellular solution contained 150 mM NMDG and 10 mM HEPES (D-(+)-glucose was added accordingly to achieve osmolarity ˜325 mOsm/L and pH was adjusted to 7.4 with hydrochloric acid). To determine if NaX-QTT was anion-permeable, we substituted all Cl^− ions in both intra- and extracellular solutions with the large anion methanesulfonate (MS^−) (FIG. 15C). The extracellular solution contained 150 mM NaMS and 10 mM HEPES (D-(+)-glucose was added accordingly to achieve osmolarity ˜325 mOsm/L, and pH was adjusted to 7.4 with NaOH). […]
For data analysis, raw current traces were typically filtered using 8-pole Bessel low-pass filter at 500-800 Hz. […] For ion-selectivity experiments performed with Na^+ intracellular solution (FIGS. 4E and 5A), liquid junction potential (LJP) was measured with reference to the Na^+ intracellular solution and corrected after recording. Relative ion permeabilities (PNa/PX) were calculated using the equation PX/PNa=[Na^+]IC exp(ErevF/RT)/[X^+]EC (X=Na, K, Li or Cs), where F is Faraday's constant, R is the gas constant, […], and Erevs were measured from the −80- to +80-m V ramp (corrected for LJP).

human NaX-QTT [2] = molecular target: T1, human NaX-QTT; test: Two-electrode voltage-clamp of Xenopus laevis oocytes expressing human NaX-QTT with blockers or multivalent cations
Procedure: as §1
Oocytes were prepared as previously described^68. Healthy-looking stage V-VI oocytes were injected with 2.5-40 ng of RNA (in 5-41 nL) using a Nanoliter 2010 injector (World Precision Instruments). When excluding one or more construct, an equivalent volume of nuclease-free water was added to maintain a constant RNA concentration across different construct combinations. Injected oocytes were kept at 18° C., 140 rpm, in ND96 supplemented with 50 μg/mL gentamicin and 50 μg/mL tetracycline (in mM: 96 NaCl, 2 KCl, 1 MgCl2, 1.8 CaCl2), 2.5 sodium pyruvate, 0.5 theophylline, 5 HEPES; pH 7.4 with NaOH) for two to five days. Two-electrode voltage-clamp measurements were performed at room temperature using a Warner OC-725C Oocyte Clamp amplifier (Warner Instrument Corp, USA) and under constant perfusion with ND96 solution (in mM: 96 NaCl, 2 KCl, 1 MgCl2, 1.8 CaCl2, 5 HEPES; pH 7.4 with NaOH). For ion selectivity experiments, external solutions contained 115 mM of test cations as chloride salts, 1.2 mM CaCl2, 2 mM MgCl2, 5 mM HEPES (pH 7.4 with the corresponding hydroxide). Data acquisition was performed using a Digidata 1550 digitizer (Molecular devices; sampled at 10 kHz) and pCLAMP 10 software (Molecular Devices). Microelectrodes from borosilicate glass capillaries (Harvard Apparatus) were prepared to have resistances around 0.2-1.0 MQ2 using a P-1000 Flaming/Brown Micropipette Puller System (Sutter Instrument) and backfilled with 3 M KCl. Aconitine and veratridine (Alomone Labs) were dissolved in DMSO to make 50 mM stocks, and were further diluted to 300 and 100 μM in ND96 for electrophysiological experiments. Other NaV activators (Alomone Labs; FIGS. 8A-D) were dissolved in water to make stock solutions. The voltage dependence of ion current was determined using a protocol consisting of steps from a holding potential of 0 mV to voltages ranging from +80 to −100 mV for 1 s in 20 mV increment.

human NaX = molecular target: T2, human NaX (Homo sapiens, UniProt Q01118); test: Two-electrode voltage-clamp of oocytes expressing human NaX with classical NaV channel activators; conditions: different voltage-step protocols in oocytes; wild-type human NaX
T2 construct: expressed in transfected cells; host or cells: Xenopus laevis oocytes injected with in vitro transcribed capped RNA
T2 sequence (Q01118 whole entry): as the sequence (Q01118 whole entry F724Q/I1189T/I1492T) above, with Q724F, T1189I, T1492I counted along it
Source text: FIGS. 8A-D show functional evaluation of human NaX in Xenopus laevis oocytes. FIGS. 8A, left panel, and 8B, left panel, show representative currents from Xenopus laevis oocytes expressing human NaX with the indicated pharmacological modulator present in the extracellular solution. […] FIGS. 8C, left panel, and 8D, left panel, show representative currents from oocytes expressing human NaX with the indicated proteins co-expressed. FIG. 8C, right panel, show I-V plots with steps between +80 and −100 mV, in 20 mV increments, from a HP of 0 mV.
Oocytes were prepared as previously described^68. Healthy-looking stage V-VI oocytes were injected with 2.5-40 ng of RNA (in 5-41 nL) using a Nanoliter 2010 injector (World Precision Instruments). When excluding one or more construct, an equivalent volume of nuclease-free water was added to maintain a constant RNA concentration across different construct combinations. Injected oocytes were kept at 18° C., 140 rpm, in ND96 supplemented with 50 μg/mL gentamicin and 50 μg/mL tetracycline (in mM: 96 NaCl, 2 KCl, 1 MgCl2, 1.8 CaCl2), 2.5 sodium pyruvate, 0.5 theophylline, 5 HEPES; pH 7.4 with NaOH) for two to five days. […] The voltage dependence of ion current was determined using a protocol consisting of steps from a holding potential of 0 mV to voltages ranging from +80 to −100 mV for 1 s in 20 mV increment.

[3] = 1 mM, oocytes, step from 0 to +80 mV
[4] = at concentrations up to 300 μM, oocytes

## [Ca+2] [Ca^2+]
Human NaX-QTT [1]; HEK293T cells, extracellular CaCl2
  permeation through NaX-QTT: does not permeate
Human NaX-QTT [1]; NaX-QTT versus NaV channels
  potency of extracellular Ca^2+ block on NaX relative to traditional NaV channels: ~10 fold
Human NaX-QTT [1]; extracellular Ca^2+ 1 mM, HEK293T cells, NaX-QTT, at 80 mV
  inhibition of the outward Na^+ current: ~70%

## [Co+2] [Co^2+]
Human NaX-QTT [2]; [3]
  inhibition of NaX-QTT currents: inhibited

## [Gd+3] [Gd^3+]
Human NaX-QTT [2]; trivalent cation, oocytes
  inhibition of NaX-QTT currents compared with Zn^2+ and Co^2+: more potent

## [Zn+2] [Zn^2+]
Human NaX-QTT [2]; [3]
  inhibition of NaX-QTT currents: inhibited

## CCN1C[C@]2(COC)[C@H](O)C[C@H](OC)[C@@]34[C@@H]5C[C@@]6(O)[C@H](OC(=O)c7ccccc7)[C@@H]5[C@@](OC(C)=O)([C@@H]([C@H](OC)[C@H]23)[C@@H]14)[C@@H](O)[C@@H]6OC [aconitine]
Human NaX
  activation of human NaX-mediated currents: did not invoke any clear human NaX-mediated currents

## O=C(NCC1CCCCN1)c1cc(OCC(F)(F)F)ccc1OCC(F)(F)F (stereo not shown) [flecainide]
Human NaX-QTT [2]; [4]
  inhibition of NaX-QTT currents: strong inhibitory effects were not observed

## CN(C)C(=O)C(CCN1CCC(O)(c2ccc(Cl)cc2)CC1)(c1ccccc1)c1ccccc1 [loperamide]
Human NaX-QTT [2]
  inhibition of NaX-QTT currents: equally potent inhibitors

## O=C1NC(=O)C(c2ccccc2)(c2ccccc2)N1 [phenytoin]
Human NaX-QTT [2]; [4]
  inhibition of NaX-QTT currents: strong inhibitory effects were not observed
